The assay concerns the target His6-TEV-PDGFRβ (557-1016) (Homo sapiens (Human), UniProt P09619). Briefly: PDGFRβ HTRF Assay. To be noted: read-out: PDGFR HTRF IC50. The assay is classed as biochemical. In a few lines:
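HTRF KinEASE-TK readout (665/620 nm ratio) of TK-biotin substrate phosphorylation by His-tagged PDGFRβ kinase domain. Enzyme and inhibitor preincubated 30 min, then ATP/substrate added for 3 h at room temperature before 60 min EDTA quench/detection.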

Among the data in patent publication US20240109917A1 (ACTELION PHARMACEUTICALS LTD, priority 2020, published 2024) are IC50 values, retold here.

Chain of His6-TEV-PDGFRβ (557-1016) (P09619 557-1016): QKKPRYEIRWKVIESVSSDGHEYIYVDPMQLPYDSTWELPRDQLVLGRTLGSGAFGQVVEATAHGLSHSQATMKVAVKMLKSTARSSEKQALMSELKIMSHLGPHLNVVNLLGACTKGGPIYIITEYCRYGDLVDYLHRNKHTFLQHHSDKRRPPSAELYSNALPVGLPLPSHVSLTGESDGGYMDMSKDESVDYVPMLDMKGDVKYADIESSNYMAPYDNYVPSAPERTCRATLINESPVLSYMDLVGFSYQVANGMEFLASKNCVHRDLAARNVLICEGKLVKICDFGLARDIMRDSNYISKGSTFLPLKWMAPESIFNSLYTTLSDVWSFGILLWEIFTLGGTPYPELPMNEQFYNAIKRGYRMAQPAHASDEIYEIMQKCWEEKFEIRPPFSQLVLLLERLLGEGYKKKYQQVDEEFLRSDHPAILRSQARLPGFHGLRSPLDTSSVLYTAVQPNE

The IC50 is the concentration needed to halve the response being measured. Regarding `Cc1ncc(NC(=O)CN2CCCC2)cc1NC(=O)c1cnn2cc(-c3cccnc3O)sc12` [Example 312, 2-(2-hydroxypyridin-3-yl)-N-(2-methyl-5-(2-(pyrrolidin-1-yl)acetamido)pyridin-3-yl)pyrazolo[5,1-b]thiazole-7-carboxamide], the IC50 came to 1.8 nM.
Consider `COc1ncccc1-c1cn2ncc(C(=O)Nc3cc(NC(=O)CN4CCCC4)cnc3C)c2s1` [Example 313, 2-(2-methoxypyridin-3-yl)-N-(2-methyl-5-(2-(pyrrolidin-1-yl)acetamido)pyridin-3-yl)pyrazolo[5,1-b]thiazole-7-carboxamide], for which the IC50 is 0.2 nM.
The figure for `Cc1ncc(NC(=O)C2CCCCN2C(C)C)cc1NC(=O)c1cnn2cc(-c3cccnc3O)sc12` (centres unmarked) [Example 314, 2-(2-hydroxypyridin-3-yl)-N-(5-(1-isopropylpiperidine-2-carboxamido)-2-methylpyridin-3-yl)pyrazolo[5,1-b]thiazole-7-carboxamide] is 2.5 nM.
Take `COc1ncccc1-c1cn2ncc(C(=O)Nc3cc(NC(=O)C4CCCCN4C(C)C)cnc3C)c2s1` (centres unmarked) [Example 315, N-(5-(1-isopropylpiperidine-2-carboxamido)-2-methylpyridin-3-yl)-2-(2-methoxypyridin-3-yl)pyrazolo[5,1-b]thiazole-7-carboxamide]: the IC50 came to 0.3 nM.
`Cc1ncc(NC(=O)[C@@H]2C[C@H](C)CN2C)cc1NC(=O)c1cnn2cc(-c3cccnc3O)sc12` [Example 316, N-(5-((2S,4S)-1,4-dimethylpyrrolidine-2-carboxamido)-2-methylpyridin-3-yl)-2-(2-hydroxypyridin-3-yl)pyrazolo[5,1-b]thiazole-7-carboxamide]: the IC50 was 1.9 nM.
Take `COc1ncccc1-c1cn2ncc(C(=O)Nc3cc(NC(=O)[C@@H]4C[C@H](C)CN4C)cnc3C)c2s1` [Example 317, N-(5-((2S,4S)-1,4-dimethylpyrrolidine-2-carboxamido)-2-methylpyridin-3-yl)-2-(2-methoxypyridin-3-yl)pyrazolo[5,1-b]thiazole-7-carboxamide]: the IC50 is 0.3 nM.
Turning to `COc1ncccc1-c1cn2ncc(C(=O)Nc3cc(NC(=O)CN4CCO[C@H](C)C4)cnc3C)c2s1` [Example 318, (R)-2-(2-methoxypyridin-3-yl)-N-(2-methyl-5-(2-(2-methylmorpholino)acetamido)pyridin-3-yl)pyrazolo[5,1-b]thiazole-7-carboxamide], the half-maximal inhibitory concentration (IC50) is 0.3 nM.
Consider `COc1ncccc1-c1cn2ncc(C(=O)Nc3cc(NC(=O)CN4CCOC(C)(C)C4)cnc3C)c2s1` [Example 319, N-(5-(2-(2,2-dimethylmorpholino)acetamido)-2-methylpyridin-3-yl)-2-(2-methoxypyridin-3-yl)pyrazolo[5,1-b]thiazole-7-carboxamide], for which the IC50 came out at 0.3 nM.
`COc1ncccc1-c1cn2ncc(C(=O)Nc3cc(NC(=O)CN4CCC5(CCOC5)C4)cnc3C)c2s1` (centres unmarked) [Example 320, N-(5-(2-(2-oxa-7-azaspiro[4.4]nonan-7-yl)acetamido)-2-methylpyridin-3-yl)-2-(2-methoxypyridin-3-yl)pyrazolo[5,1-b]thiazole-7-carboxamide]: the IC50 is 0.2 nM.
For `COc1ncccc1-c1cn2ncc(C(=O)Nc3cc(NC(=O)CN4CCCC5(CC5)C4)cnc3C)c2s1` [Example 321, N-(5-(2-(5-azaspiro[2.5]octan-5-yl)acetamido)-2-methylpyridin-3-yl)-2-(2-methoxypyridin-3-yl)pyrazolo[5,1-b]thiazole-7-carboxamide], the half-maximal inhibitory concentration (IC50) was 0.2 nM.
As to `Cc1ncc(NC(=O)C[C@@H]2CCCN2C(C)C)cc1NC(=O)c1cnn2cc(-c3cccnc3O)sc12` [Example 322, (S)-2-(2-hydroxypyridin-3-yl)-N-(5-(2-(1-isopropylpyrrolidin-2-yl)acetamido)-2-methylpyridin-3-yl)pyrazolo[5,1-b]thiazole-7-carboxamide], the IC50 amounted to 0.7 nM.
